# Measurements published in US4469848A, “Deodorant product for surface treatment” (priority 1978, dated 1984).
# Tested on: not listed separately
# Assay: Morpholine test: depression of partial vapour pressure of morpholine relative to Raoult's Law (headspace GC)
# Conditions: material 1 g + morpholine 0.25 g, 37° C., 30 minutes
row,Compound,Raoult variance ratio (RVR)
1,CCCCCCCC1CCCC1=O (stereo not drawn) [2-n-heptylcyclopentanone],1.05
2,"CC1(C)CCCC2(C)C1CCC1(C)OCCC12 (stereo not drawn) [3a-Methyl-dodecahydro-6,6,9a-trimethylnaphtho(2,1-b)furan]",1.30
3,O=C(OCc1ccccc1)c1ccccc1O [Benzyl salicylate],1.58
4,Cc1ccc(C(C)C)cc1O [Carvacrol],1.43
5,O=c1ccc2ccccc2o1 [Coumarin],1.22
6,CCOC(=O)c1ccccc1C(=O)OCC [Diethyl phthalate],1.20
7,CCOc1cc(C=O)ccc1O [Ethyl vanillin],1.43
8,"CCCCCCC(CCOC(C)=O)OC(C)=O (stereo not drawn) [Nonanediol-1,3-diacetate]",1.17
9,CCCCCC1CCC(=O)O1 (stereo not drawn) [Nonanolide-1:4],0.87
10,OCCc1ccccc1 [Phenylether alcohol],1.24
11,CC(C)CCOC(=O)c1ccccc1O [iso-Amyl salicylate],1.24
12,C/C=C\c1ccc(O)c(OC)c1 [iso-Eugenol],1.48
13,CC(=O)OC1CCCCC1C(C)(C)C (stereo not drawn) [o-t-Butylcyclohexyl acetate],1.08
14,CCC(C)(C)C1CCC(=O)CC1 [p-t-Amyl cyclohexanone],1.10
15,CC(=O)OC1CCC(C(C)(C)C)CC1 (stereo not drawn) [p-t-Butylcyclohexyl acetate],0.98
16,CC(=O)c1ccc2ccccc2c1 [β-Methyl naphthyl ketone],0.96
17,Dimyrcetol,1.22
18,Tetrahydromuguol,1.23
19,i-Nonyl acetate,0.83
20,i-Nonyl formate,1.49

# Target: T1, lipoxidase (ECl.13.1.13) (Glycine max, UniProt P08170)
# T1 sequence (P08170 1-839): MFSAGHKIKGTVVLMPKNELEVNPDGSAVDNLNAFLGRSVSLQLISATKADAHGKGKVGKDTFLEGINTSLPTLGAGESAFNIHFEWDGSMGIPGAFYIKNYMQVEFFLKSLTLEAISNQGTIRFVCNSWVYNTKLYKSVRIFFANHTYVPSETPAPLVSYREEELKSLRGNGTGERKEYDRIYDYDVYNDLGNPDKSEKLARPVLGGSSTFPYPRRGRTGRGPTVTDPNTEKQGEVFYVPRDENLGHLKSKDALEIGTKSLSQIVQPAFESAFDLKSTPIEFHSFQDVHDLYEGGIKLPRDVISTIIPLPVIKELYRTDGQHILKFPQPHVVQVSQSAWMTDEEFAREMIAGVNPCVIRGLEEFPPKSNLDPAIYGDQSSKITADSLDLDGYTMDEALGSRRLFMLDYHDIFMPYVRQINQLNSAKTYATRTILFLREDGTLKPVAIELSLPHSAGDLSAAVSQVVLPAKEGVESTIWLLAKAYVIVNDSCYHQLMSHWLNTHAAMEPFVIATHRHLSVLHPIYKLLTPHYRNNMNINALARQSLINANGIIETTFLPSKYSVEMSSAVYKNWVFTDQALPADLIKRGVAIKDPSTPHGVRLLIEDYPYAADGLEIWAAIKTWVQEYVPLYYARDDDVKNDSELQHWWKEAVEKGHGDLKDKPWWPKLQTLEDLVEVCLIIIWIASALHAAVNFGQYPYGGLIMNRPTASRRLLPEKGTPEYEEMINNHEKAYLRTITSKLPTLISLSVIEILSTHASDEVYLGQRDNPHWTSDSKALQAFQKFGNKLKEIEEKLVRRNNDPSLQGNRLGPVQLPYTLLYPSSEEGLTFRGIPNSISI
# Assay: Lipoxidase test: inhibition of lipoxidase-catalysed oxidation of linoleic acid to hydroperoxide (234 nm)
# Type: biochemical
# Conditions: 0.5% by weight solution of material in ethanol as test substrate solvent; pH 9.0 borate buffer
row,Compound,"lipoxidase inhibiting capacity (LIC), % inhibition [%]"
1,Dimyrcetol,16
2,Tetrahydromuguol,24
3,i-Nonyl acetate,50
4,i-Nonyl formate,19
